PMC10483676 (ACS Omega, 2023)

These compounds were tested against urease enzyme from the Jack bean (Canavalia ensiformis) (Canavalia ensiformis, UniProt P07374) (assay: In vitro urease assay). Conditions: not given.
Assay type: biochemical

Chain of urease enzyme from the Jack bean (Canavalia ensiformis) (P07374 whole entry, looked up): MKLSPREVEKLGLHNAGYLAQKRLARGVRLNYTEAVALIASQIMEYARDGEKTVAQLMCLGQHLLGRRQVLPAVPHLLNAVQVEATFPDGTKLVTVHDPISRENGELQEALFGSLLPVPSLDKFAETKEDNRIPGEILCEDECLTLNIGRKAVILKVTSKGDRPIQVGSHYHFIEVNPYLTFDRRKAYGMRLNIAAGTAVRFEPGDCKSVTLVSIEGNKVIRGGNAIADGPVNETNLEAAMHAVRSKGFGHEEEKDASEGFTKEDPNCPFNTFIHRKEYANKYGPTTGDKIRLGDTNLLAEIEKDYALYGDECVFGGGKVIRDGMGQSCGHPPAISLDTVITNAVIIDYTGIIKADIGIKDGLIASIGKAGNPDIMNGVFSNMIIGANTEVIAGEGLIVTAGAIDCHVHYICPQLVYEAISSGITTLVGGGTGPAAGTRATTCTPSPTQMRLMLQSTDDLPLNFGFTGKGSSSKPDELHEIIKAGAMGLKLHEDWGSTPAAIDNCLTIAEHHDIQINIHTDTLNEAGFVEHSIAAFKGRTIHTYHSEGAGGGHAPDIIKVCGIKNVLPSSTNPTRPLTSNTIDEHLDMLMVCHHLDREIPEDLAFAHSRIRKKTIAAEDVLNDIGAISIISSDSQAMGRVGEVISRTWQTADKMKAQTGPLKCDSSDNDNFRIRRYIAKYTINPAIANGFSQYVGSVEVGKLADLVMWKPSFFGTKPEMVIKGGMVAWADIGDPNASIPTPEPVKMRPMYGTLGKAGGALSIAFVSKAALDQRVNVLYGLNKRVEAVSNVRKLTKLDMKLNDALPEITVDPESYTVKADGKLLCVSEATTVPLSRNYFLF

IC50 [µM]	SMILES
25.2 ± 0.56	COc1ccc(-c2nnc3sc(COc4ccc(O)cc4)nn23)cc1 [4b]
4.5 ± 0.13	Oc1ccccc1OCc1nn2c(-c3cccc(Br)c3)nnc2s1 [4g]
6.79 ± 0.24	Oc1ccc(OCc2nn3c(-c4cccc(Br)c4)nnc3s2)cc1 [4h]
5.91 ± 0.13	COc1ccc(C2=Nn3c(nnc3-c3ccc(OC)cc3)SC2)cc1 [5a]
8.37 ± 0.16	COc1ccc(-c2nnc3n2N=C(c2ccc(Cl)cc2)CS3)cc1 [5b]
6.93 ± 0.14	COc1ccc(-c2nnc3n2N=C(c2ccc(F)cc2)CS3)cc1 [5c]
5.16 ± 0.14	COc1ccc(-c2nnc3n2N=C(c2ccc(C)cc2)CS3)cc1 [5d]
10.5 ± 0.26	COc1ccc(-c2nnc3n2N=C(c2cccc4ccccc24)CS3)cc1 [5f]
5.3 ± 0.17	COc1ccc(-c2nnc3n2N=C(c2ccc(Cl)c(Cl)c2)CS3)cc1 [5h]
9.55 ± 0.41	COc1ccc(C2=Nn3c(nnc3-c3cccc(Br)c3)SC2)cc1 [5i]
11.5 ± 0.38	Clc1ccc(C2=Nn3c(nnc3-c3cccc(Br)c3)SC2)cc1 [5j]
5.56 ± 0.12	Cc1ccc(C2=Nn3c(nnc3-c3cccc(Br)c3)SC2)cc1 [5l]
7.2 ± 0.18	Brc1cccc(-c2nnc3n2N=C(c2cccc4ccccc24)CS3)c1 [5n]
7.72 ± 0.31	O=[N+]([O-])c1ccc(C2=Nn3c(nnc3-c3cccc(Br)c3)SC2)cc1 [5o]
13 ± 0.37	Clc1ccc(C2=Nn3c(nnc3-c3cccc(Br)c3)SC2)cc1Cl [5p]
12 ± 0.25	COc1ccc(-c2nnc3sc(COc4ccccc4C)nn23)cc1 [compound 4c]
39 ± 0.53	COc1ccc(-c2nnc3sc(COc4ccc(C)cc4)nn23)cc1 [compound 4d]
9.63 ± 0.32	Cc1ccccc1OCc1nn2c(-c3cccc(Br)c3)nnc2s1 [compound 4i]
4.67 ± 0.15	Cc1ccc(OCc2nn3c(-c4cccc(Br)c4)nnc3s2)cc1 [compound 4j]
46.8 ± 0.63	Fc1ccc(OCc2nn3c(-c4cccc(Br)c4)nnc3s2)cc1 [compound 4l]
3.33 ± 0.11	Fc1ccc(C2=Nn3c(nnc3-c3cccc(Br)c3)SC2)cc1 [compound 5k]

Same assay, conditions: relative to thiourea IC50

inhibitory potential fold higher than thiourea [fold]	SMILES
~6.5	Fc1ccc(C2=Nn3c(nnc3-c3cccc(Br)c3)SC2)cc1 [compound 5k]
